Reference: US12514843B2, “Biofilm disruption” (QBIOTICS PTY LTD, priority 2019, dated 2026)
In brackets after ≈: the same amount, converted by molar mass.

Tests used:
E. coli IR57 biofilm [1] = experiment: Disruption of established in vitro biofilm, CLSM with COMSTAT image analysis; type: cell-based, Escherichia coli; conditions: E. coli IR57 24 h biofilm, 256 μg/mL, further 24 h; vs untreated and ethanol blank controls
Protocol: The effects of administration of Compounds 1, 4 and 6 and comparator compound CC-1 on disruption of established in vitro biofilms of Escherichia coli (E. coli) was investigated using methods described in Powell et al. (2018).
(§1) Biofilms of E. coli IR57 were grown on 96-well glass-bottomed plates in Mueller-Hinton (MH) broth for 24 h, before 50% of the supernatant was replaced with fresh MH broth with or without the epoxytiglienone compound added to a final concentration of 256 μg/mL (vehicle is ethanol). An ethanol equivalent blank was used as a further control treatment. The plates were then incubated for a further 24 h at 37° C.
(§2) Confocal laser scanning microscopy (CLSM) was then used to image the biofilms, following staining with Live/Dead® Baclight stain with phosphate buffered saline (PBS) added to each well before imaging with z-stack CLSM. The resultant images were analysed by COMSTAT software to produce measurements of (i) biofilm biomass volume or bio-volume (μm^3/μm^2) and (ii) DEAD/LIVE bacterial ratio.

[2] = tested on: A. baumannii 7789 biofilm; experiment: as above; type: cell-based, Acinetobacter baumannii; conditions: 256 μg/mL; for DEAD/LIVE bacterial ratio: vs untreated and ethanol blank controls; for biofilm bio-volume (COMSTAT): vs untreated and ethanol blank controls (p<0.05)
Protocol: as §1, §2
(§3) The effects of the epoxytiglienones (Compounds 1, 4, 6 and the comparator compound CC-1) on disruption of established in vitro biofilms were further investigated with two other species of Gram-negative bacteria (Pseudomonas aeruginosa PA01 and Acinetobacter baumannii 7789) using methods described in Example 2 above. Cell permeabilisation following Compound 1, 4 and 6 treatment was also determined using SYTOX™ Green Nucleic Acid Stain with untreated control and positive control of 70% isopropanol.

[3] = tested on: P. aeruginosa PAO1 biofilm; experiment: as above; type: cell-based, Pseudomonas aeruginosa; conditions: 256 μg/mL, vs untreated and ethanol blank controls
Protocol: as §1, §2, §3

Streptococcus pyogenes = experiment: Minimum inhibitory concentration (MIC) assay, planktonic culture, broth dilution; type: cell-based; parameters: key: C = confluent growth, i.e. no MIC could be determined at any concentration tested; conditions: S. pyogenes, planktonic culture in Mueller-Hinton broth; mean of three replicate tests
Protocol: (§4) The effects of five epoxytiglienones (Compounds 1, 2, 3, 4 and 6) and two comparator comparator compounds (epoxytiglienones having longer carbon chains at the C12 position) on six human pathogenic bacteria (two Gram-positive and four Gram-negative species) were measured in conventional planktonic culture systems. A minimum inhibitory concentrations (MIC) assay (the standard assay employed to define and quantify antibiotic activity) was performed to determine antibacterial activity for each epoxytiglienone against each bacterial strain.
(§5) The Gram-positive bacteria used in this study were methicillin resistant Staphylococcus aureus (MRSA) 1004A and Streptococcus pyogenes. The Gram-negative bacteria used in this study were Pseudomonas aeruginosa PAO1, Escherichia coli IR57 (V7), Klebsiella pneumoniae, and Acinetobacter baumannii 7789 (V19). MIC assays were performed on planktonic cultures of each bacteria grown in Mueller-Hinton broth using the standard broth dilution method described by Jorgensen et al. (1999) using epoxytiglienones dissolved in ethanol.

Klebsiella pneumoniae = experiment: as above; type: cell-based; parameters: key: C = confluent growth, i.e. no MIC could be determined at any concentration tested; conditions: K. pneumoniae, planktonic culture in Mueller-Hinton broth; mean of three replicate tests
Protocol: as §4, §5

[4] = tested on: methicillin resistant Staphylococcus aureus (MRSA) 1004A; experiment: as above; type: cell-based; parameters: key: C = confluent growth, i.e. no MIC could be determined at any concentration tested; conditions: S. aureus, planktonic culture in Mueller-Hinton broth; mean of three replicate tests
Protocol: as §4, §5

[5] = tested on: Escherichia coli IR57 (V7); experiment: as above; type: cell-based; parameters: key: C = confluent growth, i.e. no MIC could be determined at any concentration tested; conditions: E. coli, planktonic culture in Mueller-Hinton broth; mean of three replicate tests
Protocol: as §4, §5

[6] = tested on: Acinetobacter baumannii 7789 (V19); experiment: as above; type: cell-based; parameters: key: C = confluent growth, i.e. no MIC could be determined at any concentration tested; conditions: A. baumannii, planktonic culture in Mueller-Hinton broth; mean of three replicate tests
Protocol: as §4, §5

[7] = tested on: Pseudomonas aeruginosa PAO1; experiment: as above; type: cell-based; parameters: key: C = confluent growth, i.e. no MIC could be determined at any concentration tested; conditions: P. aeruginosa, planktonic culture in Mueller-Hinton broth; mean of three replicate tests
Protocol: as §4, §5

E. coli IR57 biofilm [8] = experiment: Multiple particle tracking (MPT) of 200 nm FluoSpheres in established biofilm; type: cell-based, Escherichia coli; conditions: for Diffusion coefficient (Deff) ± standard deviation: 200 nm negatively-charged carboxylate-modified FluoSpheres in E. coli IR57 biofilms, 256 μg/mL, 24 h treatment; for mean squared displacement (MSD) of FluoSphere particles / biofilm creep compliance: E. coli IR57 biofilm, vs untreated and ethanol blank controls; for mean squared displacement (MSD) of FluoSphere particles: 200 nm FluoSpheres; for biofilm creep compliance: derived from MSD vs lag time
Protocol: The effect of three epoxytiglienones (Compounds 1, 4 and 6) on the assembly and permeability of established biofilms of E. coli was assessed using multiple particle tracking (MPT). MPT is a recently described technique, allowing simultaneous tracking of micron-size particles through biofilms using microscopy, from which the diffusion-based parameters of embedded particles within the extracellular polymeric matrix (EPS) of the biofilm can be determined (Cao et al. 2016). MPT measurements also allows for calculation of micro-rheological properties of the biofilm structure following treatment with test compounds.
E. coli biofilms were established and epoxytiglienone and control treatments applied as described in Example 2 above. Twenty-four hours after application of the treatments, the biofilms were stained with SYTO9® and 0.0025% of negatively-charged, carboxylate-modified FluoSpheres® (200 nm) added onto the biofilms and incubated for a further 2 hours. FluoSphere® particle movements within the biofilms were then captured on video using epifluorescence microscopy with a high frame-rate camera (33 ms). Particle trajectories were tracked using ImageJ softwaren (Mosaic) before calculation of three parameters of the 200 nm FluoSphere® particles: (i) ensemble diffusion coefficient (Deff), (ii) ensemble mean squared displacement (MSD) and (iii) creep compliance (a measure of resistance to mechanical deformation derived from the MSD vs lag time). Each treatment was replicated three times.

Compound	biofilm bio-volume (COMSTAT) (E. coli IR57 biofilm [1])	distribution and density of bacteria in the biofilm (CLSM) (E. coli IR57 biofilm [1])	DEAD/LIVE bacterial ratio [2]	biofilm bio-volume (COMSTAT) [2]	DEAD/LIVE bacterial ratio [3]	Minimum inhibitory concentrations (Streptococcus pyogenes)	Minimum inhibitory concentrations (Klebsiella pneumoniae)	Minimum inhibitory concentrations [4]	Minimum inhibitory concentrations [5]	Minimum inhibitory concentrations [6]	Minimum inhibitory concentrations [7]	Diffusion coefficient (Deff) ± standard deviation (E. coli IR57 biofilm [8])	mean squared displacement (MSD) of FluoSphere particles (E. coli IR57 biofilm [8])	biofilm creep compliance (E. coli IR57 biofilm [8])
CCCCCC=CC=CC(=O)OC1C(C)C2(O)C(C3OC3(CO)C(O)C3(O)C(=O)C(C)=CC32)C2C(C)(C)C12OC(=O)C(C)CC (centres unmarked) [CC-1, 12-(2,4-decadienoyl)-13-(2-methylbutanoyl)-6,7-epoxy-4,5,9,12,13,20-hexahydroxy-1-tiglien-3-one, reference compound]	no apparent effect	no apparent effect	no significant differences	significant reductions	no significant differences	8 µg/mL (≈ 12.7 µM)	C	8 µg/mL (≈ 12.7 µM)	C	C	C			
CCCCCC=CC=CC(=O)O[C@@H]1C(C)[C@]2(O)C(C3OC3(CO)[C@H](O)[C@@]3(O)C(=O)C(C)=CC23)C2C(C)(C)[C@]21OC(=O)C(C)CC (stereo partly drawn) [CC-2, 12R-(2,4-decadienoyl)-13R-(2-methylbutanoyl)-6,7-epoxy-4R,5R,9S,12R,13R,20-hexahydroxy-1-tiglien-3-one, reference compound]						8 µg/mL (≈ 12.7 µM)	C	16 µg/mL (≈ 25.4 µM)	C	C	C			
C/C=C(\C)C(=O)O[C@@H]1[C@@H](C)[C@@]2(O)[C@H]([C@@H]3C(C)(C)[C@]13OC(=O)[C@@H](C)CC)[C@@H]1O[C@]1(CO)[C@@H](O)[C@]1(O)C(=O)C(C)=C[C@H]12 [Compound 1, 12-tigloyl-13-(2-methylbutanoyl)-6,7-epoxy-4,5,9,12,13,20-hexahydroxy-1-tiglien-3-one]	Significant decreases	significant changes	no significant differences	significant reductions	no significant differences	128 µg/mL (≈ 227 µM)	C	256 µg/mL (≈ 455 µM)	C	C	C	0.6018 ± 0.0901 cm^2 · s^−1 × 10^−9	substantially higher	increased
CCC(C)C(=O)OC1C(C)C2(O)C(C3OC3(CO)C(O)C3(O)C(=O)C(C)=CC32)C2C(C)(C)C12OC(=O)C(C)CC (centres unmarked) [Compound 2, 12,13-di-(2-methylbutanoyl)-6,7-epoxy-4,5,9,12,13,20-hexahydroxy-1-tiglien-3-one]						128 µg/mL (≈ 227 µM)	C	256 µg/mL (≈ 453 µM)	C	C	C			
CCCCCC(=O)OC1C(C)C2(O)C(C3OC3(CO)C(O)C3(O)C(=O)C(C)=CC32)C2C(C)(C)C12OC(=O)C(C)CC (centres unmarked) [Compound 3, 12-hexanoyl-13-(2-methylbutanoyl)-6,7-epoxy-4,5,9,12,13,20-hexahydroxy-1-tiglien-3-one]						128 µg/mL (≈ 221 µM)	C	256 µg/mL (≈ 442 µM)	C	C	C			
CCC(=O)OC1C(C)C2(O)C(C3OC3(CO)C(O)C3(O)C(=O)C(C)=CC32)C2C(C)(C)C12OC(=O)C(C)CC (centres unmarked) [Compound 6, 12-propanoyl-13-(2-methylbutanoyl)-6,7-epoxy-4,5,9,12,13,20-hexahydroxy-1-tiglien-3-one]	Decreases in bio-volume were evident	significant changes	no significant differences		no significant differences	C	C	C	C	C	C	0.1607 ± 0.0104 cm^2 · s^−1 × 10^−9	substantially higher	increased
